Experimental data taken from patent US11439625B2, “Combination therapy for proliferative diseases” (Avexxin AS, priority 2016, dated 2022).

System: MDA-MB-468 cell line
Test: Resazurin viability assay
Assay type: cell-based
Conditions: co-treatment with BEZ235, sub-toxic doses combined, 24 hrs, MDA-MB-468 cells (FIG. 1)
Experimental: Cell Culture. The MDA-MB-468 cell line was from ATCC. This cell line was established from a pleural effusion of patient with metastatic breast adenocarcinoma. The cells were maintained in RPMI medium supplemented with 10% (v/v) FBS, 0.3 mg/mL L-glutamine, and 0.1 mg/mL gentamicin at 37° C. in 5% CO2. Sub-culture using trypsin-EDTA was performed every 3-4 days with a split ratio of 1:3-1:6 to ensure actively proliferating cells.
Resazurin Viability Assay. Cells were seeded in fully supplemented medium at a density of 7 000 cells per well in 96 well plates. After 24 hrs of cultivation, when the cells were ˜60% confluent, the medium was replaced with serum free medium to ensure synchronization of the cells and to increase cell sensitivity to treatment. Following 16 hrs of serum starvation, the medium was replaced with fresh serum free medium with or without Compounds 1 and 2 (Avexxin, Norway), and NVP-BEZ235 (Cayman Chemicals, US) or solvent (DMSO, Sigma Aldrich, US). The cells were observed under the microscope to evaluate possible morphology changes and signs of stress before the addition of resazurin according to the manufacturers instructions (RnD Systems, UK). Resazurin was metabolized for 2 hrs (37° C., 5% CO2) before fluorescence was read at 544 nm excitation and 590 nm emission wavelengths (BioTek Synergy HT).

CCCCCCCOc1ccc(OCC(=O)c2nc(C(=O)OC)cs2)cc1 [Compound 1]
synergistic effects on breast cancer cell viability compared to each inhibitor alone: synergistic effects
synergistic effects on breast cancer cell viability compared to each inhibitor alone (listed as compound 1): the synergistic effect is pronounced
